# Patent US11352350B2, “IRAK degraders and uses thereof” (Kymera Therapeutics, Inc., priority 2018, dated 2022)
# Tests used:
# OCI-LY10 = experiment: CTG Cell Viability Assay - OCI-LY10; format: cell-based, human; conditions: Homo sapiens, OCI-Ly10, 96 h, OCI-LY10, 4 days; read-out: CTG Cell Viability Assay - OCI-LY10: Average external-IC50
# How it was run: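 OCI-LY10 cells exposed to 9-dose, 1:3 dilutions from 10 μM top (0.2% DMSO) for 4 days at 37° C, 5% CO2. Viability by CellTiter-Glo luminescence; IC50 from three-parameter logistic fit.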
# IRAK4 [1] = target: T1, IRAK4 (Homo sapiens (Human), UniProt Q9NWZ3); experiment: IRAK4 degradation in human whole blood monocyte - flow cytometry; format: cell-based; conditions: read-out: IRAK4 degradation in whole blood monocyte-Flow cytometry: Average external Abs IC50
# Method: (§1) Human whole blood IRAK4 degradation flow assay. Whole blood was collected in heparinized tubes and plated on the same day as draw (day 0). Whole blood was aliquoted into deep well plates. Compound plates were prepared and a 10 point, 5-fold dilution was performed with a final DMSO concentration of 0.1%. Compound was added to whole blood deep well plate, sealed and incubated at 37° C., 5% CO2 for 20 hours (for 4 hour treatment, compounds were prepared and added the following day). Following the treatment incubation period (day 1), BD lyse fix (BD #558049) was added to the whole blood plate, placed on plate shaker for 30 seconds and incubated for 10 mins at room temperature. Whole blood was then spun down and washed two times with PBS/0.5% BSA, aspirated to pellet and placed into −80° C. freezer until further processing for flow. On the flow run day, whole blood plates were thawed and samples were transferred to PCR plates. The pre-perm staining cocktail (CD3 Ax488/CD8 BUV805/CD14 BUV395/CD16/56 BV711/CD19 BV785) was added to samples and incubated for 30 minutes at room temperature. Samples were washed two times and permeabilized with Methanol for 10 minutes at 4° C. Samples were washed two times and the post-perm staining cocktail (CD4 PE/IRAK4 Ax647 BD #560315) was added and incubated for 30 minutes at room temperature. Samples were washed two times with PBS/BSA and run on a BD LSRFortessa. Mononuclear cells are gated by SSCH/FSCH and single cells. Monocytes are then gated through CD14 positive gate and lymphocytes are gated through CD14 negative gate. To determine absolute DC50 and max degradation values, MFI values were normalized to DMSO max and 20 hour 10 μM min control. Twenty hour dose curves were calculated using a 4 parameter logistic regression curve fit, no constraints (Top doses were removed if hook effects were observed and the bottom was constrained to 0).
# TNFα [2] = experiment: Human PBMC LPS TNFα assay; format: cell-based; conditions: hPBMC, LPS stimulation, read-out: IRAK4 hPBMC LPS TNF-α inhibition: Average external-IC50
# Method: Human PBMC LPS TNFα assay. Frozen PBMCs were thawed into RPMI with 10% FBS/1% penicillin/streptomycin and same day plated into 96 well plates at 200,000 PBMC/[…] media per well. Compound plates were prepared in DMSO with D300 cassette as 8-point dose curves in duplicate, starting dose 2 μM, 5-fold. Compounds are added 200 nL into cells for final 200 μL per well. Compound and cells were incubated at 37° C., 5% CO2 for 20 hours. After twenty hours of pretreatment with the compounds, LPS (01 1 1:B4) (Sigma #L2637) was added at 100 ng/ml final concentration and PBMCs incubated an additional five hours at 37° C., 5% CO2. Following assay completion, PBMC plates were spun down at 2000 rpm for 10 minutes. 100 uL of supernatant was carefully removed and placed into a new 96 well Costar (#3879) plate and stored at −80° C. until further analysis. Meso scale Discovery (MSD) human V-plex assays were used to measure cytokine levels. On day of cytokine analysis, supernatant samples were thawed, diluted with V-plex diluent #2, and directly to MSD plates. Assay was further completed per standard manufacturer's protocol. Cytokine data was normalized to LPS stimulated and unstimulated controls. Prism Graphpad was used to generate IC50 using 4 parameter logistic regression curve, free-fit.
# TNFα [3] = experiment: Human whole blood LPS TNFα assay; format: cell-based; conditions: 20 h pretreatment, LPS 5 h, read-out: IRAK4 human whole blood LPS TNFa inhibition: Average external-IC50
# Method: Human Whole blood LPS TNFα assay. Whole blood was collected fresh and plated same day into 96 well plates at 180 μL per well. Compound plates were prepared in DMSO as 8-point dose curves in duplicate, starting dose 2 μM, 5-fold. Compounds are added 20 μL into blood for final 200 μL per well. Compound and cells were incubated at 37° C., 5% CO2 for 20 hours. After twenty hours of pretreatment with the compounds, LPS (01 1 1:B4) (Sigma #L2637) was added at 100 ng/ml final concentration and blood incubated an additional five hours at 37° C., 5% CO2. Following assay completion, whole blood plates were spun down at 2000 rpm for 15 minutes at 4° C. 50 μL of plasma was carefully removed and placed into a new 96 well Costar (#3879) plate and stored at −80° C. until further analysis. Meso scale Discovery (MSD) human V-plex assays were used to measure cytokine levels. On day of cytokine analysis, plasma samples were thawed, diluted with V-plex diluent #2, and directly to MSD plates. Assay was further completed per standard manufacturer's protocol. Cytokine data was normalized to LPS stimulated and unstimulated controls. Prism Graphpad was used to generate IC50 using 4 parameter logistic regression curve, free-fit.
# IRAK4 [4] = target: T1, IRAK4; experiment: IRAK4 degradation in human whole blood lymphocyte - flow cytometry; format: cell-based; conditions: read-out: IRAK4 degradation in whole blood lymphocyte-Flow cytometry: Average external Abs IC50
# Method: as §1
# IRAK4 [5] = target: T1, IRAK4; experiment: IRAK4 MSD degradation in OCI-LY10; format: cell-based; conditions: MSD
# How it was run: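 OCI-LY10 cells treated with 8-point 1:3 dilutions (top 1 to 10 μM final) for 4 to 24 h at 37° C. Lysate IRAK4 measured by MSD sandwich immunoassay (2H9 capture, Y279 detection, SULFO-TAG anti-rabbit). DC50 from three-parameter logistic fit.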
# [6] = OCI-LY10, 4 hrs, read-out: IRAK4 MSD degradation in OCI-LY10 at 4 hrs: Average external-Abs DC50
# T1 sequence (Q9NWZ3 whole entry): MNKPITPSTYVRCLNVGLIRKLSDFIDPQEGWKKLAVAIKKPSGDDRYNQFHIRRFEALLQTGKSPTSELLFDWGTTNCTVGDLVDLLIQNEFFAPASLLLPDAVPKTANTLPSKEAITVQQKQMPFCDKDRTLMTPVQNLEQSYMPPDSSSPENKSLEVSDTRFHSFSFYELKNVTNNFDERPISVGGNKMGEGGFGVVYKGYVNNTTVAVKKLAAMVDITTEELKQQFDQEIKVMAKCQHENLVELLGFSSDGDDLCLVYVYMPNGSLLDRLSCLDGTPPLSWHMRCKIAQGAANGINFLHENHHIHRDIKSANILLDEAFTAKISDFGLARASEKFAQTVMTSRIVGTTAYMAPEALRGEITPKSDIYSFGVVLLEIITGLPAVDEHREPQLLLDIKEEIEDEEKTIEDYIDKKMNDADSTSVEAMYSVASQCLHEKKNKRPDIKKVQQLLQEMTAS
SMILES,IC50 (OCI-LY10) [nM],IC50 (IRAK4 [1]) [nM],IC50 (TNFα [2]) [nM],IC50 (TNFα [3]) [nM],DC50 (IRAK4 [4]) [nM],DC50 (IRAK4 [5]; [6]) [nM],DC50 (IRAK4 [1]) [nM],"DC50 (IRAK4 [5]; OCI-LY10, 24 hrs, read-out: IRAK4 MSD degradation in OCI-LY10 at 24 hrs: Average external-Abs DC50) [nM]"
Cn1c(=O)n(C2CCC(=O)NC2=O)c2cccc(CCCOCC3CN(C[C@H]4CC[C@H](n5cc(NC(=O)c6coc(-c7ccnc(NCC8CC8)c7)n6)c(C(F)F)n5)CC4)C3)c21 (stereo partly shown) [I-65],< 50,< 50,< 50,> 1000,50 to 100,< 10,–,–
Cn1c(=O)n(C2CCC(=O)NC2=O)c2cccc(CCCOCCNC[C@H]3CC[C@H](n4cc(NC(=O)c5coc(-c6ccnc(NCC(F)(F)F)c6)n5)c(C(N)=O)n4)CC3)c21 (stereo partly shown) [I-11],> 1000,< 50,< 50,> 1000,< 50,< 10,–,–
Cn1c(=O)n(C2CCC(=O)NC2=O)c2ccc(CCCN3CCO[C@H](CNC[C@H]4CC[C@H](n5cc(NC(=O)c6coc(-c7ccnc(NCC8CC8)c7)n6)c(C(F)F)n5)CC4)C3)cc21 (stereo partly shown) [I-35],< 50,< 50,100 to 500,500 to 1000,50 to 100,10 to 100,–,–
C=C(C)c1nn([C@H]2CC[C@H](C(=O)N(C)CCCOCCCc3cccc4c3n(C)c(=O)n4C3CCC(=O)NC3=O)CC2)cc1NC(=O)c1coc(-c2ccnc(NCC3CC3)c2)n1 (stereo partly shown) [I-31],100 to 500,–,100 to 500,> 1000,100 to 500,100 to 1000,50 to 100,–
CN(C[C@H]1CN(CCCc2ccc3c(c2)n(C)c(=O)n3C2CCC(=O)NC2=O)CCO1)C[C@H]1CC[C@H](n2cc(NC(=O)c3coc(-c4ccnc(NCC5CC5)c4)n3)c(C(F)F)n2)CC1 (stereo partly shown) [I-34],> 1000,< 50,100 to 500,100 to 500,< 50,< 10,–,–
CN(CCCOCCCc1ccc2c(c1)c1cccnc1n2C1CCC(=O)NC1=O)C[C@H]1CC[C@H](n2cc(NC(=O)c3coc(-c4ccnc(NCC5CC5)c4)n3)c(C(F)F)n2)CC1 (stereo partly shown) [I-46],500 to 1000,–,100 to 500,> 1000,100 to 500,10 to 100,500 to 1000,10 to 100
CN(CCOCCOCCCc1ccc2c(c1)oc(=O)n2C1CCC(=O)NC1=O)C[C@H]1CC[C@H](n2cc(NC(=O)c3coc(-c4ccnc(NCC5CC5)c4)n3)c(C(F)F)n2)CC1 (stereo partly shown) [I-43],> 1000,–,100 to 500,100 to 500,100 to 500,10 to 100,50 to 100,–
CN(CCCOCCCc1ccc2c(c1)n(C)c(=O)n2C1CCC(=O)NC1=O)C[C@H]1CC[C@H](n2cc(NC(=O)c3coc(-c4ccnc(NCC5CC5)c4)n3)c(C(F)F)n2)CC1 (stereo partly shown) [I-62],50 to 100,< 50,100 to 500,> 1000,< 50,< 10,–,–
Cn1c(=O)n(C2CCC(=O)NC2=O)c2cccc(CCCN3CCO[C@@H](CNC[C@H]4CC[C@H](n5cc(NC(=O)c6coc(-c7ccnc(NCC8CC8)c7)n6)c(C(F)F)n5)CC4)C3)c21 (stereo partly shown) [I-38],< 50,< 50,< 50,100 to 500,50 to 100,< 10,–,–
Cn1c(=O)n(C2CCC(=O)NC2=O)c2cccc(CCCOC3CCN(C[C@H]4CC[C@H](n5cc(NC(=O)c6coc(-c7ccnc(NCC8CC8)c7)n6)c(C(F)F)n5)CC4)CC3)c21 (stereo partly shown) [I-48],< 50,< 50,100 to 500,100 to 500,< 50,< 10,–,–
Cn1c(=O)n(C2CCC(=O)NC2=O)c2cccc(CCCOCCOCCNC[C@H]3CC[C@H](n4cc(NC(=O)c5coc(-c6ccnc(NCC7CC7)c6)n5)c(C(F)F)n4)CC3)c21 (stereo partly shown) [I-2],100 to 500,< 50,100 to 500,> 1000,< 50,100 to 1000,–,–
CN(C[C@@H]1CN(CCCc2ccc3c(c2)n(C)c(=O)n3C2CCC(=O)NC2=O)CCO1)C(=O)[C@H]1CC[C@H](n2cc(NC(=O)c3coc(-c4ccnc(NCC5CC5)c4)n3)c(C(F)F)n2)CC1 (stereo partly shown) [I-17],100 to 500,< 50,< 50,500 to 1000,50 to 100,< 10,–,–
Cn1c(=O)n(C2CCC(=O)NC2=O)c2ccc(CN3CCN(CCO[C@H]4C[C@H](N(C)C(=O)[C@H]5CC[C@H](n6cc(NC(=O)c7coc(-c8ccnc(NCC9CC9)c8)n7)c(C(F)F)n6)CC5)C4)CC3)cc21 (stereo partly shown) [I-45],< 50,< 50,< 50,500 to 1000,50 to 100,< 10,–,–
Cn1c(=O)n(C2CCC(=O)NC2=O)c2ccc(CCOCCN3CCO[C@@H](CNC[C@H]4CC[C@H](n5cc(NC(=O)c6cnn7ccc(N8CCNCC8)nc67)c(C(F)F)n5)CC4)C3)cc21 (stereo partly shown) [I-41],> 1000,< 50,100 to 500,500 to 1000,< 50,< 10,–,–
